What was measured:
BCL2 D103Y = BCL2 D103Y (Homo sapiens, UniProt P10415, D103Y); assay: TR-FRET competitive binding assay, BCL2 D103Y; details: Ki determined from IC50, read-out: TR_FRET EKI_Bcl2 D103Y
Method in brief: (§1)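 Competitive TR-FRET displacement of fluorescein-PUMA peptide (2 or 20 nM) from 0.5 nM terbium-labelled N-terminal Halo-fusion BCL2 (1-207, wild type or mutant) or BCLXL (2-196), expressed in E. coli. Buffer 50 mM Hepes pH 7.5, 150 mM NaCl, 5% DMSO; 2 h at 23°C. 520/495 nm ratio fitted over 11 points for IC50, converted to Ki.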

BCL2 G101V [1] = target: BCL2 G101V (Homo sapiens, UniProt P10415, G101V); assay: TR-FRET competitive binding assay, BCL2 G101V; details: BCL2 G101V; Ki determined from IC50; read-out: TR_FRET EKI_Bcl2 G101V
Method in brief: as §1

BCL2 G101V [2] = assay: TR-FRET competitive binding assay, BCL2 G101V; design: species or system human; details: ratio Ki BCL2 G101V / Ki BCL2 WT
Method in brief: as §1

BCL2 WT = BCL2 WT (Homo sapiens (Human), UniProt P10415); assay: TR-FRET competitive binding assay, BCL2 WT; details: Ki determined from IC50, read-out: TR_FRET EKI_Bcl2 WT
Method in brief: as §1

BCLXL WT = BCLXL WT (Homo sapiens (Human), UniProt Q07817); assay: TR-FRET competitive binding assay, BCLXL WT; details: for Ki: BCLXL WT, Ki determined from IC50, read-out: TR_FRET EKI BclxL; for TR_FRET EKI BCLxL/WT selectivty ratio: ratio Ki BCLxL / Ki BCL2 WT
Method in brief: as §1

KMS-12-PE Bcl-2 WT = assay: In vitro cytotoxicity CellTiter-Glo 48 h, KMS-12-PE Bcl-2 WT; format: cell-based; details: Homo sapiens, KMS-12-PE, C50 = concentration needed to reach 50% of the cellular viability
Method in brief: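 KMS-12-PE myeloma cells lentivirally transduced with Bcl-2 WT or G101V (TagRFP-sorted), exposed to compound 11-point dose-response for 48 h at 37 °C, 5% CO2. Viability read by CellTiter-Glo ATP luminescence; C50 is the concentration giving 50% cellular viability.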

BCLXL WT, sequence (Q07817 other isoform, or with tags, fused parts or gaps): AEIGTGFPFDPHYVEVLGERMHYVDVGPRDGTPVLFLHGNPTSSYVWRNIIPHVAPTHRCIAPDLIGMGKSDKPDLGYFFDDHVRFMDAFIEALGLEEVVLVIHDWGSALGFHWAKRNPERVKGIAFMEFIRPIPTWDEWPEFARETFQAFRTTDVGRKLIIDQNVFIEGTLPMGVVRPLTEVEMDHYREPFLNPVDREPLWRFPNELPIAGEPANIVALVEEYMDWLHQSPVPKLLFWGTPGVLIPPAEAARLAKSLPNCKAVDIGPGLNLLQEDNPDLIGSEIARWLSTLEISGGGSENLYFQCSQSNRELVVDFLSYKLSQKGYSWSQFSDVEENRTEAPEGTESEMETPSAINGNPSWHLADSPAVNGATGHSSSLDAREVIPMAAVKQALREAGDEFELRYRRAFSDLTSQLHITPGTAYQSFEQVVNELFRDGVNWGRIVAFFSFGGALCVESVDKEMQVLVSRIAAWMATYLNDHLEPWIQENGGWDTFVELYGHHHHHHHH

Structure (SMILES) | Ki (BCL2 D103Y) [nM] | Ki (BCL2 G101V [1]) [nM] | TR_FRET EKI G101V/WT selectivty ratio (BCL2 G101V [2]) | Ki (BCL2 WT) [nM] | Ki (BCLXL WT) [nM] | TR_FRET EKI BCLxL/WT selectivty ratio (BCLXL WT) | IC50 (KMS-12-PE Bcl-2 WT) [µM]
Cc1c(C(=O)N(c2ccccc2)c2cnn(C(F)F)c2)cc(-c2cc3c(cc2C(=O)N2Cc4ccccc4C[C@H]2C)CN(C(=O)Cc2ccc(OCCN4CCOCC4)cc2)CC3)n1C [Example 190, N-[1-(difluoromethyl)pyrazol-4-yl]-1,2-dimethyl-5-[7-[(3R)-3-methyl-3,4-dihydro-1H-isoquinoline-2-carbonyl]-2-[2-[4-(2-morpholinoethoxy)phenyl]acetyl]-3,4-dihydro-1H-isoquinolin-6-yl]-N-phenyl-pyrrole-3-carboxamide] | 0.12 | 3.6 | 73.4 | 0.05 | 16.8 | 342.7 | 0.0077
COc1ccc(N(C(=O)c2cc(-c3cc4c(cc3C(=O)N3Cc5ccccc5C[C@H]3C)CN(C(=O)Cc3ccc(OCCN5CCOCC5)cc3)CC4)n(C)c2C)c2ccccc2)cn1 [Example 191, N-(6-methoxy-3-pyridyl)-1,2-dimethyl-5-[7-[(3R)-3-methyl-3,4-dihydro-1H-isoquinoline-2-carbonyl]-2-[2-[4-(2-morpholinoethoxy)phenyl]acetyl]-3,4-dihydro-1H-isoquinolin-6-yl]-N-phenyl-pyrrole-3-carboxamide] | 0.07 | 2.4 | 65.3 | 0.04 | 9.5 | 264.0 | 0.0131
COc1ccc(N(C(=O)c2cc(-c3cc4c(cc3C(=O)N3Cc5ccccc5C[C@H]3C)CN(C(=O)Cc3ccc(OCCN5CCOCC5)cc3F)CC4)n(C)c2C)c2ccccc2)cn1 [Example 192, 5-[2-[2-[2-fluoro-4-(2-morpholinoethoxy)phenyl]acetyl]-7-[(3R)-3-methyl-3,4-dihydro-1H-isoquinoline-2-carbonyl]-3,4-dihydro-1H-isoquinolin-6-yl]-N-(6-methoxy-3-pyridyl)-1,2-dimethyl-N-phenyl-pyrrole-3-carboxamide] | 0.11 | 2.6 | 58.9 | 0.04 | 7.7 | 175.0 | 0.0083
Cc1c(C(=O)N(c2ccccc2)c2cnn(C(F)F)c2)cc(-c2cc3c(cc2C(=O)N2Cc4ccccc4C[C@H]2C)CN(C(=O)Cc2ccc(OCCN4CCOCC4)cc2F)CC3)n1C [Example 193, N-[1-(difluoromethyl)pyrazol-4-yl]-5-[2-[2-[2-fluoro-4-(2-morpholinoethoxy)phenyl]acetyl]-7-[(3R)-3-methyl-3,4-dihydro-1H-isoquinoline-2-carbonyl]-3,4-dihydro-1H-isoquinolin-6-yl]-1,2-dimethyl-N-phenyl-pyrrole-3-carboxamide] | 0.1 | 3.1 | 72.0 | 0.04 | 11 | 256.9 | 0.0062
Cc1c(C(=O)N(c2ccccc2)c2cnc3c(cnn3C)c2)cc(-c2cc3c(cc2C(=O)N2Cc4ccccc4C[C@H]2C)CN(C(=O)Cc2ccc(OCCN4CCOCC4)cc2F)CC3)n1C [Example 194, 5-[2-[2-[2-fluoro-4-(2-morpholinoethoxy)phenyl]acetyl]-7-[(3R)-3-methyl-3,4-dihydro-1H-isoquinoline-2-carbonyl]-3,4-dihydro-1H-isoquinolin-6-yl]-1,2-dimethyl-N-(1-methylpyrazolo[3,4-b]pyridin-5-yl)-N-phenyl-pyrrole-3-carboxamide] | 0.08 | 1 | 35.7 | 0.03 | 3.3 | 115.0 | 0.0026
